Measurements reported in the NIST ThermoML archive (doi:10.1016/j.jct.2014.11.014).
± gives the expanded uncertainty stated by the source.

Assay: osmotic coefficient (dimensionless); mn = molality of the nth substance listed, in mol/kg
Conditions: 298.15 K, 100 kPa, Liquid, isopiestic method

SMILES | osmotic coefficient (m1 = 0.6482) | osmotic coefficient (m1 = 1.344) | osmotic coefficient (m1 = 1.706) | osmotic coefficient (m1 = 1.869) | osmotic coefficient (m1 = 1.921) | osmotic coefficient (m1 = 2.034) | osmotic coefficient (m1 = 2.247) | osmotic coefficient (m1 = 1.014) | osmotic coefficient (m1 = 2.276) | osmotic coefficient (m1 = 2.931) | osmotic coefficient (m1 = 3.121) | osmotic coefficient (m1 = 3.201) | osmotic coefficient (m1 = 3.445) | osmotic coefficient (m1 = 3.639)
CCCCn1cc[n+](C)c1.[Br-] [1-butyl-3-methylimidazolium bromide] + O | 0.771 ± 0.013 | 0.742 ± 0.014 | 0.734 ± 0.014 | 0.731 ± 0.014 | 0.726 ± 0.014 | 0.729 ± 0.014 | 0.719 ± 0.014 |  |  |  |  |  |  | 
N[C@@H](CO)C(=O)O [L-serine] + O |  |  |  |  |  |  |  | 0.986 ± 0.01 | 0.876 ± 0.011 | 0.855 ± 0.011 | 0.875 ± 0.011 | 0.872 ± 0.011 | 0.861 ± 0.011 | 0.889 ± 0.011
